Values quoted from earlier work in article PMC12304285 (British Journal of Cancer, 2025).

Tested on: patients with advanced solid tumours
Design: method as in PMID 33230210
Details: single-agent trial; cited from earlier work

## COc1ccc([C@@H](O)c2cc(-c3ncnc4cc(N5CCOCC5)ccc34)c(F)cc2Cl)nn1 [peposertib]
  anaemia or myelosuppressive TEAEs: Neither anaemia nor myelosuppressive TEAEs were reported
